# Assay results from ChEMBL document CHEMBL3885861, “Open TG-GATES”.
# Species: Rattus norvegicus
# Test: Open TG-GATES - Regimen: Daily Repeat
# Format: toxicity, organism-based, Sprague-Dawley
# Set-up: regimen Daily Repeat, gender Male, age 6 weeks
# Settings: in vivo, po, 750 mg/kg, route gavage, dose level High; for APTT / Bas / Eos / Fbg / Hb / Ht / Lym / MCH / MCHC / MCV / Mono / Neu / PT / Plat / RBC / Ret / WBC: tissue Blood; for KIDNEY_L / KIDNEY_R / KIDNEY_TOTAL: tissue Kidney; for LIVER: tissue Liver; for A/G / ALP / ALT / AST / BUN / CRE / Ca / Cl / DBIL / GLC / IP / K / LDH / Na / PL / RALB / TBIL / TC / TG / TP / gamma-GTP: tissue Plasma
structure (smiles),measurement,setting,value
CN(C/C=C/C#CC(C)(C)C)Cc1cccc2ccccc12 [TERBINAFINE],TERMINAL_BW,"72 h, time 3 day",217.7 g
same,APTT,"72 h, time 3 day",22.6 s
same,Bas,"72 h, time 3 day",0.8%
same,Eos,"72 h, time 3 day",0.8%
same,Fbg,"72 h, time 3 day",200.6 mg/dL
same,Hb,"72 h, time 3 day",14.1 g/dL
same,Ht,"72 h, time 3 day",41.1%
same,Lym,"72 h, time 3 day",82.8%
same,MCH,"72 h, time 3 day",20.9 pg
same,MCHC,"72 h, time 3 day",34.2%
same,MCV,"72 h, time 3 day",61 fL
same,Mono,"72 h, time 3 day",2.6%
same,Neu,"72 h, time 3 day",13%
same,PT,"72 h, time 3 day",12.5 s
same,Plat,"72 h, time 3 day",137.3 x10_4/uL
same,RBC,"72 h, time 3 day",673.8 x10_4/ul
same,Ret,"72 h, time 3 day",4.5%
same,WBC,"72 h, time 3 day",64.8 x10_2/uL
same,KIDNEY_L,"72 h, time 3 day",1 g
same,KIDNEY_R,"72 h, time 3 day",1.1 g
same,KIDNEY_TOTAL,"72 h, time 3 day",2.1 g
same,LIVER,"72 h, time 3 day",11.4 g
same,A/G,"72 h, time 3 day",2
same,ALP,"72 h, time 3 day",748.6 IU/L
same,ALT,"72 h, time 3 day",34.6 IU/L
same,AST,"72 h, time 3 day",62.6 IU/L
same,BUN,"72 h, time 3 day",10.6 mg/dL
same,CRE,"72 h, time 3 day",0.4 mg/dL
same,Ca,"72 h, time 3 day",9.5 mg/dL
same,Cl,"72 h, time 3 day",102.8 meq/L
same,DBIL,"72 h, time 3 day",0.09 mg/dL
same,GLC,"72 h, time 3 day",172 mg/dL
same,IP,"72 h, time 3 day",9.2 mg/dL
same,K,"72 h, time 3 day",3.8 meq/L
same,LDH,"72 h, time 3 day",207.4 IU/L
same,Na,"72 h, time 3 day",140.8 meq/L
same,PL,"72 h, time 3 day",123.2 mg/dL
same,RALB,"72 h, time 3 day",3.6 g/dL
same,TBIL,"72 h, time 3 day",0.2 mg/dL
same,TC,"72 h, time 3 day",81 mg/dL
same,TG,"72 h, time 3 day",19.2 mg/dL
same,TP,"72 h, time 3 day",5.4 g/dL
same,gamma-GTP,"72 h, time 3 day",1.8 IU/L
same,TERMINAL_BW,"[…], time 7 day",187.9 g
same,TERMINAL_BW,"[…], time 14 day",255.9 g
same,TERMINAL_BW,"[…], time 28 day",360.5 g
same,APTT,"[…], time 7 day",45.7 s
same,Bas,"[…], time 7 day",1%
same,Eos,"[…], time 7 day",0.6%
same,Fbg,"[…], time 7 day",187.6 mg/dL
same,Hb,"[…], time 7 day",15.9 g/dL
same,Ht,"[…], time 7 day",45.2%
same,Lym,"[…], time 7 day",77.6%
same,MCH,"[…], time 7 day",21.1 pg
same,MCHC,"[…], time 7 day",35.2%
same,MCV,"[…], time 7 day",59.8 fL
same,Mono,"[…], time 7 day",4.6%
same,Neu,"[…], time 7 day",15.8%
same,PT,"[…], time 7 day",30.8 s
same,Plat,"[…], time 7 day",146 x10_4/uL
same,RBC,"[…], time 7 day",755 x10_4/ul
same,Ret,"[…], time 7 day",0.3%
same,WBC,"[…], time 7 day",82.6 x10_2/uL
same,APTT,"[…], time 14 day",21.4 s
same,Bas,"[…], time 14 day",0.6%
same,Eos,"[…], time 14 day",0.6%
same,Fbg,"[…], time 14 day",198.4 mg/dL
same,Hb,"[…], time 14 day",13.8 g/dL
same,Ht,"[…], time 14 day",40.2%
same,Lym,"[…], time 14 day",70.4%
same,MCH,"[…], time 14 day",20.7 pg
same,MCHC,"[…], time 14 day",34.3%
same,MCV,"[…], time 14 day",60.3 fL
same,Mono,"[…], time 14 day",3.2%
same,Neu,"[…], time 14 day",24.4%
same,PT,"[…], time 14 day",11.9 s
same,Plat,"[…], time 14 day",119.4 x10_4/uL
same,RBC,"[…], time 14 day",667 x10_4/ul
same,Ret,"[…], time 14 day",5.8%
same,WBC,"[…], time 14 day",116.6 x10_2/uL
same,APTT,"[…], time 28 day",26 s
same,Bas,"[…], time 28 day",0.4%
same,Eos,"[…], time 28 day",1%
same,Fbg,"[…], time 28 day",211.6 mg/dL
same,Hb,"[…], time 28 day",14 g/dL
same,Ht,"[…], time 28 day",40.2%
same,Lym,"[…], time 28 day",76.4%
same,MCH,"[…], time 28 day",19.8 pg
same,MCHC,"[…], time 28 day",34.8%
same,MCV,"[…], time 28 day",57.1 fL
same,Mono,"[…], time 28 day",3.4%
same,Neu,"[…], time 28 day",18.4%
same,PT,"[…], time 28 day",12.8 s
same,Plat,"[…], time 28 day",110.7 x10_4/uL
same,RBC,"[…], time 28 day",705.6 x10_4/ul
same,Ret,"[…], time 28 day",2.9%
same,WBC,"[…], time 28 day",115.7 x10_2/uL
same,KIDNEY_L,"[…], time 7 day",1.1 g
same,KIDNEY_R,"[…], time 7 day",1.1 g
same,KIDNEY_TOTAL,"[…], time 7 day",2.2 g
same,KIDNEY_L,"[…], time 14 day",1.2 g
same,KIDNEY_R,"[…], time 14 day",1.3 g
same,KIDNEY_TOTAL,"[…], time 14 day",2.5 g
same,KIDNEY_L,"[…], time 28 day",1.6 g
same,KIDNEY_R,"[…], time 28 day",1.7 g
same,KIDNEY_TOTAL,"[…], time 28 day",3.3 g
same,LIVER,"[…], time 7 day",12.4 g
same,LIVER,"[…], time 14 day",16.5 g
same,LIVER,"[…], time 28 day",21.9 g
same,A/G,"[…], time 7 day",1.9
same,ALP,"[…], time 7 day",692.8 IU/L
same,ALT,"[…], time 7 day",52 IU/L
same,AST,"[…], time 7 day",81.4 IU/L
same,BUN,"[…], time 7 day",14.6 mg/dL
same,CRE,"[…], time 7 day",0.5 mg/dL
same,Ca,"[…], time 7 day",9.1 mg/dL
same,Cl,"[…], time 7 day",103.6 meq/L
same,DBIL,"[…], time 7 day",0.1 mg/dL
same,GLC,"[…], time 7 day",141 mg/dL
same,IP,"[…], time 7 day",7 mg/dL
same,K,"[…], time 7 day",4.6 meq/L
same,LDH,"[…], time 7 day",214.2 IU/L
same,Na,"[…], time 7 day",142.4 meq/L
same,PL,"[…], time 7 day",145 mg/dL
same,RALB,"[…], time 7 day",3.5 g/dL
same,TBIL,"[…], time 7 day",0.2 mg/dL
same,TC,"[…], time 7 day",96.8 mg/dL
same,TG,"[…], time 7 day",21.4 mg/dL
same,TP,"[…], time 7 day",5.3 g/dL
same,gamma-GTP,"[…], time 7 day",2.6 IU/L
same,A/G,"[…], time 14 day",1.7
same,ALP,"[…], time 14 day",536.8 IU/L
same,ALT,"[…], time 14 day",37 IU/L
same,AST,"[…], time 14 day",60.2 IU/L
same,BUN,"[…], time 14 day",15.8 mg/dL
same,CRE,"[…], time 14 day",0.4 mg/dL
same,Ca,"[…], time 14 day",10.4 mg/dL
same,Cl,"[…], time 14 day",103 meq/L
same,DBIL,"[…], time 14 day",0.074 mg/dL
same,GLC,"[…], time 14 day",183 mg/dL
same,IP,"[…], time 14 day",7.8 mg/dL
same,K,"[…], time 14 day",4 meq/L
same,LDH,"[…], time 14 day",151.8 IU/L
same,Na,"[…], time 14 day",142.8 meq/L
same,PL,"[…], time 14 day",136.4 mg/dL
same,RALB,"[…], time 14 day",3.8 g/dL
same,TBIL,"[…], time 14 day",0.1 mg/dL
same,TC,"[…], time 14 day",82 mg/dL
same,TG,"[…], time 14 day",20.4 mg/dL
same,TP,"[…], time 14 day",6.1 g/dL
same,gamma-GTP,"[…], time 14 day",1.2 IU/L
same,A/G,"[…], time 28 day",1.8
same,ALP,"[…], time 28 day",601.2 IU/L
same,ALT,"[…], time 28 day",50 IU/L
same,AST,"[…], time 28 day",65.4 IU/L
same,BUN,"[…], time 28 day",14.8 mg/dL
same,CRE,"[…], time 28 day",0.5 mg/dL
same,Ca,"[…], time 28 day",10.2 mg/dL
same,Cl,"[…], time 28 day",103.2 meq/L
same,DBIL,"[…], time 28 day",0.08 mg/dL
same,GLC,"[…], time 28 day",197.2 mg/dL
same,IP,"[…], time 28 day",8 mg/dL
same,K,"[…], time 28 day",3.8 meq/L
same,LDH,"[…], time 28 day",178.8 IU/L
same,Na,"[…], time 28 day",142.4 meq/L
same,PL,"[…], time 28 day",146.4 mg/dL
same,RALB,"[…], time 28 day",3.9 g/dL
same,TBIL,"[…], time 28 day",0.2 mg/dL
same,TC,"[…], time 28 day",88.4 mg/dL
same,TG,"[…], time 28 day",18.2 mg/dL
same,TP,"[…], time 28 day",6.1 g/dL
same,gamma-GTP,"[…], time 28 day",1.6 IU/L
